# Measured values published in patent publication US20220296535A1, “Antibacterial Dosage Regime Using Cannabinoids” (Botanix Pharmaceuticals Limited, priority 2019, published 2022).
# Several values for one entry are separate records, joined by “and”; a condition that tells them apart may be missing. Identical values can stand only once. Like-named read-outs stand apart in the source and are kept apart here.
# Assays:
# [1] = test system: Staphylococcus aureus MRSA ATCC 43300 biofilm; experiment: Biofilm minimum inhibitory concentration (Biofilm MIC), crystal violet OD590; type: cell-based
# Method: The collaborator supplied sample as dry material. A stock solution at 10 mg/mL in neat DMSO (11.2 mg in 1.12 mL of DMSO) was prepared. The highest concentration tested in the assay was 128 μg/mL and 2% DMSO as a final concentration using 1/20 dilution to achieve these concentrations.
# Bacteria (Staphylococcus aureus, ATCC 43300; MRSA) was cultured on Tryptic Soy Broth (TSB, BD, Cat. No. 211825) at 37° C. overnight, then it was diluted 1:100 in fresh TSB supplemented with 5% glucose. 100 μL were added across the 96-well of polystyrene (PS) (Corning; Cat. No. 3370) plate, leaving row H as media Control. Plates were incubated at 37° C. for 48 h to generate the biofilm. The plates were prepared in duplicate.
# The antibiotic controls and CBD were serially diluted in TSB with 5% glucose two-fold across the wells of polystyrene (PS) 96-well plates (Corning; Cat. No. 3370), plated in duplicate. All plates had flat bottom wells and were covered with low-evaporation lids.
# 48 h after incubation, bacteria plates were carefully washed three times with 200 μL/well of saline solution (0.9% NaCl, Baxter Healthcare; Cat. No. AHF7124) using manual pipette to remove the planktonic cells but leave the biofilm adhered to the plate wells. Then, 100 μL of diluted controls and CBD were transferred into the washed plates containing the biofilm. Then, these plates were incubated at 37° C. for 24 h.
# Next day, plates were washed three times with saline solution, then fixed with 100 μL/well of 99% methanol for 15 minutes. Once the biofilm was fixed, 100 μL/well 0.1% Crystal Violet Stain (Sigma; Cat No. C0775-25G) was added for 20 minutes and used as indicator of biofilm formation, followed by three times washing and dry well. To dissolve the crystal violet, 150 μL/well of methanol was added to allow for biofilm MIC analysis.
# The biofilm formation was determined by optical density read at 590 nm (OD590). The percentage of biofilm formation was evaluated comparing the average, standard deviation and percentage of confidence of the media control (Row H) against the rest of the plate.
# Analysis was performed using Microsoft Excel.
# [2] = test system: A. acidipropionici ATCC 25562; experiment: Anaerobic MIC micro-broth dilution; type: cell-based, Acidipropionibacterium acidipropionici; settings: A. acidipropionici ATCC 25562, anaerobic chamber, BHI, 48 h
# [3] = test system: C. granulosum ATCC 25564; experiment: Anaerobic MIC micro-broth dilution; type: cell-based, Cutibacterium granulosum; settings: C. granulosum ATCC 25564, anaerobic chamber, BHI, 48 h
# [4] = test system: S. aureus ATCC 43300; experiment: Anaerobic MIC micro-broth dilution; type: cell-based, Staphylococcus aureus; settings: S. aureus ATCC 43300, anaerobic chamber, BHI, 48 h
# [5] = test system: Bacillus cereus ATCC 11778; experiment: Expanded panel MIC micro-broth dilution; type: cell-based; settings: CaMHB
# Method: (§1) The collaborator supplied sample as dry material. Angela Kavanagh prepared a stock solution at 10 mg/mL in neat DMSO. The highest concentration tested in the assay was 64 μg/mL for bacteria and 128 μg/mL for fungi. 2% DMSO was the final concentration using 1/20 dilution to achieve these concentrations.
# (§2) The compound was serially diluted in Cation-adjusted Mueller Hinton Broth (CaMHB; BD, Cat. No. 212322) two-fold across the wells of polystyrene (PS) 96-well plates (Corning; Cat. No. 3370), plated in duplicate. All plates had flat bottom wells and were covered with low-evaporation lids.
# (§3) Bacteria were cultured in CaMHB at 37° C. overnight, then diluted 40-fold and incubated at 37° C. for a further 2-3 h. The resultant mid-log phase cultures were diluted in CaMHB and added to each well of the compound-containing 96-well plates to give a final cell density of 5×10^5 CFU/mL, and a final compound concentration range of 0.03-64 μg/mL. The plates were covered and incubated at 37° C. for 20 h.
# (§4) Inhibition of bacterial growth was determined visually, where the MIC was recorded as the lowest compound concentration with no visible growth.
# [6] = test system: Staphylococcus aureus ATCC 29213; experiment: Expanded panel MIC micro-broth dilution; type: cell-based; settings: CaMHB
# Method: as §1, §2, §3, §4
# [7] = test system: Staphylococcus aureus ATCC 33591; experiment: Expanded panel MIC micro-broth dilution; type: cell-based; settings: CaMHB
# Method: as §1, §2, §3, §4
# [8] = test system: Staphylococcus aureus ATCC 43300; experiment: Expanded panel MIC micro-broth dilution; type: cell-based; settings: ATCC43300, CaMHB, read-out: Cannabidiol MIC (Batch 1)
# Method: as §1, §2, §3, §4
# [9] = test system: Staphylococcus aureus NARSA, VRS1; experiment: Expanded panel MIC micro-broth dilution; type: cell-based; settings: CaMHB
# Method: as §1, §2, §3, §4
# [10] = test system: Staphylococcus epidermidis ATCC 14990; experiment: Expanded panel MIC micro-broth dilution; type: cell-based; settings: CaMHB
# Method: as §1, §2, §3, §4
# [11] = test system: Staphylococcus epidermidis NRS 60; experiment: Expanded panel MIC micro-broth dilution; type: cell-based; settings: CaMHB
# Method: as §1, §2, §3, §4
# [12] = test system: Staphylococcus warneri ATCC 27836; experiment: Expanded panel MIC micro-broth dilution; type: cell-based; settings: CaMHB
# Method: as §1, §2, §3, §4
# [13] = test system: Streptococcus pyogenes ATCC 12344; experiment: Expanded panel MIC micro-broth dilution; type: cell-based; settings: ATCC12344, CaMHB, read-out: Cannabidiol MIC (Batch 1)
# Method: as §1, §2, §3, §4
# [14] = test system: 132 strains of Staphylococcus aureus (106 MRSA and 26 MSSA strains); experiment: MIC50/MIC90 micro-broth dilution, all strains
# [15] = listed as Cannabidiol (Batch 2)
compound,measurement,setting,value
"C=C(C)C1CCC(C)=CC1c1c(O)cc(CCCCC)cc1O (stereo not shown) [Cannabidiol, 2-[3-methyl-6-(1-methylethenyl)-2-cyclohexen-1-yl]-5-pentyl-1,3-benzenediol]",biofilm MIC,[1],1 to 2 µg/mL
same,biofilm MIC relative to standard vegetative cell MIC,[1],approximately four-fold
same,inhibition of 48 h biofilm formation,[1]; at 2 and 4 μg/mL,up to 75%
same,Biofilm MIC (TSB + 5% Gluc) 07/112/18,"[1]; first biological replicate, two technical replicates, ≥70% inhibition OD590",4 µg/mL
same,Biofilm MIC (TSB + 5% Gluc) 14/112/18,"[1]; second biological replicate, two technical replicates, ≥70% inhibition OD590",2 µg/mL
same,MIC,[2],active
same,MIC,"[2]; Acidipropionibacterium acidipropionici, ATCC25562, read-out: MIC",0.5 µg/mL
same,MIC,[3]; [15],4/2
same,MIC,[3]; listed as Cannabidiol (CBD),active
same,MIC,[4]; [15],2/1
same,MIC,[4]; listed as Cannabidiol (CBD),active
same,Cannabidiol MIC (Batch 1),[5]; Bacillus cereus ATCC 11778,2 µg/mL
same,MIC,"[5]; Bacillus cereus, ATCC11778, Bacillus cereus ATCC 11778, read-out: Cannabidiol MIC (Batch 1)",1 µg/mL
same,Cannabidiol MIC (Batch 1),[6]; Staphylococcus aureus ATCC 29213,2 µg/mL
same,MIC,"[6]; Staphylococcus aureus, ATCC29213, Staphylococcus aureus ATCC 29213, read-out: Cannabidiol MIC (Batch 1)",1 µg/mL
same,Cannabidiol MIC (Batch 1),[7]; Staphylococcus aureus ATCC 33591,2 µg/mL
same,MIC,"[7]; Staphylococcus aureus, ATCC33591, Staphylococcus aureus ATCC 33591, read-out: Cannabidiol MIC (Batch 1)",1 µg/mL
same,MIC,[8],1 µg/mL
same,Cannabidiol MIC (Batch 1),[9],2 µg/mL
same,MIC,"[9]; Staphylococcus aureus, read-out: Cannabidiol MIC (Batch 1)",1 µg/mL
same,Cannabidiol MIC (Batch 1),[10]; Staphylococcus epidermidis ATCC 14990,2 µg/mL
same,MIC,"[10]; Staphylococcus epidermidis, ATCC14990, Staphylococcus epidermidis ATCC 14990, read-out: Cannabidiol MIC (Batch 1)",1 µg/mL
same,Cannabidiol MIC (Batch 1),[11]; Staphylococcus epidermidis NRS 60,4 µg/mL and 8 µg/mL
same,MIC,"[11]; Staphylococcus epidermidis, NRS60, Staphylococcus epidermidis NRS 60, read-out: Cannabidiol MIC (Batch 1)",4 to 8 µg/mL
same,Cannabidiol MIC (Batch 1),[12]; Staphylococcus warneri ATCC 27836,4 µg/mL
same,MIC,"[12]; Staphylococcus warneri, ATCC27836, Staphylococcus warneri ATCC 27836, read-out: Cannabidiol MIC (Batch 1)",2 µg/mL
same,MIC,[13],1 µg/mL
same,"Staphylococcus aureus spp. MIC distribution, number of strains",[14]; MIC 0.015 μg/mL,0
same,"Staphylococcus aureus spp. MIC distribution, number of strains",[14]; MIC 0.03 μg/mL,0
same,"Staphylococcus aureus spp. MIC distribution, number of strains",[14]; MIC 0.06 μg/mL,0
same,"Staphylococcus aureus spp. MIC distribution, number of strains",[14]; MIC 0.5 μg/mL,0
same,"Staphylococcus aureus spp. MIC distribution, number of strains",[14]; MIC 1 μg/mL,6
same,"Staphylococcus aureus spp. MIC distribution, number of strains",[14]; MIC 2 μg/mL,106
same,"Staphylococcus aureus spp. MIC distribution, number of strains",[14]; MIC 4 μg/mL,18
same,"Staphylococcus aureus spp. MIC distribution, number of strains",[14]; MIC 8 μg/mL,1
same,"Staphylococcus aureus spp. MIC distribution, number of strains",[14]; MIC 32 μg/mL,0
same,MIC range,[14]; S. aureus spp. ALL,0.25 to 8 µg/mL
same,MIC50,[14]; Staphylococcus aureus,2 µg/mL
same,MIC90,[14]; Staphylococcus aureus,4 µg/mL
same,MIC,"[14]; Staphylococcus aureus, MRSA|MSSA, read-out: MIC across the 132 strains tested",2 to 4 µg/mL
